Values joined by “and” are separate entries in the source; they are usually repeats but may differ in a detail not shown here. Equal values may be shown once.

For one test, the target named is T1, 5-LO (Homo sapiens, UniProt P09917).
T1 construct: endogenous in cells; host or cells: human PMNL from buffy coats
T1 sequence (P09917 1-674): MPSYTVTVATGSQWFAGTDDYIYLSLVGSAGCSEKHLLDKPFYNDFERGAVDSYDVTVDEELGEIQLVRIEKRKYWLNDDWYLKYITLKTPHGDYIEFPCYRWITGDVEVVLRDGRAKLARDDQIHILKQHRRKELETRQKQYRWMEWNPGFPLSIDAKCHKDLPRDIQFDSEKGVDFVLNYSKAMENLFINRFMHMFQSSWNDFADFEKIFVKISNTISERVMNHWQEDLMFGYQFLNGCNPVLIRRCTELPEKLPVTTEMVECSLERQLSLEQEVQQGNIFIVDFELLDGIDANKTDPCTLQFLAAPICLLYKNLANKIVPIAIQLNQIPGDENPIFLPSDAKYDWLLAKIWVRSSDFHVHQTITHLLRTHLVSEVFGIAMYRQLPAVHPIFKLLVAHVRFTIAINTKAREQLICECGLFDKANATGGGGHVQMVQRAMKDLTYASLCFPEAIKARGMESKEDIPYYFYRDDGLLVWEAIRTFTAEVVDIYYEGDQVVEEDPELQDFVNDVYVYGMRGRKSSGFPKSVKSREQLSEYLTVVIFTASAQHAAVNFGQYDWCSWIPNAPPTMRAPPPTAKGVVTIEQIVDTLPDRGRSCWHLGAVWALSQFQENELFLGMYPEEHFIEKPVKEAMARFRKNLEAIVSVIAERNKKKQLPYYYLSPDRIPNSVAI
Briefly: 5-LO product formation (LTB4, 5-HETE) in intact PMNL, A23187 + 20 µM AA. Format: cell-based. To be noted: 15 min preincubation, A23187 2.5 µM + 20 µM AA, n.i. = no inhibition observed; for PMNL (20 µM AA) 5-HETE IC50 / PMNL (20 µM AA) LTB4 IC50: intact PMNL. How it is done:
(§1) Buffy coats from different donors of different blood types were commercially obtained from DRK Blutspendedienst Baden-Württemberg Institute Frankfurt. Donors have given their written consent. […] Following separation, the supernatant was transferred very gently to new 50-ml tubes containing lymphocyte separation medium (LSM) and centrifuged for 10 min at 800 ×g at RT with the centrifuge brake turned off. Afterwards, the supernatant was decanted carefully to discard the platelets and monocytes. The PMNL were washed with 1× PBS before the residual erythrocytes were lysed in two cycles: the cell pellet was resuspended with 10 ml H2O and vortexed for 45 s, and lysis was stopped with 40 ml 1 × PBS. After 10-min centrifugation at 200 ×g at RT, the cycle was repeated once. The supernatant was aspirated, the cell pellet resuspended in 5 ml PBS/glucose and initially separated PMNL preparations with different blood types were finally pooled to gain a sufficient number of cells. […] The enzyme was diluted in PBS/EDTA/ATP, transferred into 5-ml glass tubes, and stored on ice. […] The reaction was stopped by placing the glass tubes on ice. The supernatants were transferred to 1.5 ml reaction tubes and stored at −80°C before LC-MS (liquid chromatography and mass spectrometry) analysis of LTB4 and HETEs as described in 2.6 at the Institute of Pharmacology, Goethe University, University Hospital, Germany. The lipid mediators LTB4, hydroxyeicosatetraenoic acids, 5(S)-HETE, 12(S)-HETE, 15(S)-HETE and 20-HETE were analyzed using liquid chromatography tandem-mass spectroscopy (LC-MS/MS). The LC-MS/MS system consisted of a 5500 QTrap mass spectrometer (Sciex, Darmstadt, Germany), operating in negative ESI mode, an Agilent 1200 HPLC system (Agilent, Waldbronn, Germany) and an HTC Pal autosampler (Chromtech, Idstein, Germany). Sample extraction of LTB4 and HETEs were performed using liquid-liquid extraction: 200 µl of the sample were gently mixed with 20 µl of methanol and 20 µl of internal standard solution and extracted twice with 600 µl ethyl acetate. […] Working solutions of all analytes were prepared in methanol containing 0.1% BHT. The calibration standards were prepared by further dilution of the working standards. […] The residues were reconstituted in 50 µl of methanol:water:BHT (50:50:10^−4, v/v/v) prior to injection into the LC-MS/MS system. Chromatographic separation was achieved using a Gemini NX C18 column (150 mm × 2 mm ID, 5 µm, Phenomenex, Aschaffenburg, Germany) with a precolumn of the same material. A linear gradient was employed at a flow rate of 0.5 ml/min and a total run time of 17.5 min. Mobile phases were A water:ammonia (100:0.05, v/v) and B acetonitrile:ammonia (100:0.05, v/v). […] All data were acquired using Analyst software v1.6.2 and quantitation was performed by MultiQuant software v3.0 (both Sciex, Darmstadt, Germany) using the internal standard method (isotope-dilution mass spectrometry). Calibration curves were calculated by linear regression with 1/x.

For the next test, the target named is T2, 12-LO (Homo sapiens, UniProt P18054).
T2 construct: endogenous in cells; host or cells: platelet impurities in human PMNL preparations
T2 sequence (P18054 1-663): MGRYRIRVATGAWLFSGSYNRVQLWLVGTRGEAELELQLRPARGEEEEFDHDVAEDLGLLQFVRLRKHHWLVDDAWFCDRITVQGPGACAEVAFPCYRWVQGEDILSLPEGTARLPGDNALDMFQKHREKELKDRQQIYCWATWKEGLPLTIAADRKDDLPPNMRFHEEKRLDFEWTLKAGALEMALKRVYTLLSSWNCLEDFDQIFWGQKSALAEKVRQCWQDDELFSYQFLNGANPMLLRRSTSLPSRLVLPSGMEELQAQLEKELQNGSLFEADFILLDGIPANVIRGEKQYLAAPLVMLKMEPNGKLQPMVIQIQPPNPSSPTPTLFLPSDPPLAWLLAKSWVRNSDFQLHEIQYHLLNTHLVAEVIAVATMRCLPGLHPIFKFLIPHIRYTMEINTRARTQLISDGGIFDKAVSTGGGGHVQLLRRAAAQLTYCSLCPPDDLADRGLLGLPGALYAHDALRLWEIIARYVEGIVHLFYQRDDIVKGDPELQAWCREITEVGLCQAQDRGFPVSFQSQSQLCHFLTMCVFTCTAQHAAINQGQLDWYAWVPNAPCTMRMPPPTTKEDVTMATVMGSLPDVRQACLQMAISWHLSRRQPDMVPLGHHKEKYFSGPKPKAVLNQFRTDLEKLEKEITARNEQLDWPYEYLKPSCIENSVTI
Briefly: 12-HETE formation in intact PMNL preparations, A23187 + 20 µM AA. The test is classed as cell-based. Particulars: 15 min preincubation, A23187 2.5 µM + 20 µM AA, n.i. = no inhibition observed. How it is done:
as §1

Where [1] appears, read: PMNL (20 µM AA) 5-HETE IC50, intact PMNL.
Setting [2] is: PMNL (20 µM AA) LTB4 IC50, intact PMNL.

For `CCC=C(CCCCCCCC(=O)O)[N+](=O)[O-]` [12.9.9, 9-nitro-dodec-9-enoic acid], on 5-LO, the “PMNL (20 µM AA) 5-HETE IC50” value is “n.i” and the “PMNL (20 µM AA) LTB4 IC50” value is recorded as “n.i”. Besides, the “PMNL (20 µM AA) 12-HETE IC50” value on 12-LO is on record as “n.i”.
For `CCCCC=C(CCCCCCCC(=O)O)[N+](=O)[O-]` [14.9.9, 9-nitro-tetradec-9-enoic acid], on 5-LO, the “PMNL (20 µM AA) 5-HETE IC50” value is given as “n.i” and the “PMNL (20 µM AA) LTB4 IC50” value is on record as “n.i”. In addition, the “PMNL (20 µM AA) 12-HETE IC50” value at 12-LO is reported as “n.i”.
For `CCCCCCC=C(CCCCCCCC(=O)O)[N+](=O)[O-]` [16.9.9, 9-nitro-hexadec-9-enoic acid], the IC50 at 5-LO (setting [1]) amounted to 10.8 ± 1.1 µM; on 5-LO (setting [2]), 12 ± 1.1 µM. Moreover, on 12-LO, the “PMNL (20 µM AA) 12-HETE IC50” value was “n.i”.
As to `CCCCCCCCCCCCCC=C(CCC(=O)O)[N+](=O)[O-]` [18.4.4, 4-nitro-octadec-4-enoic acid], the IC50 on 5-LO (setting [1]) turned out to be 9.2 ± 1.2 µM; on 5-LO (setting [2]), 10.6 ± 1.1 µM. On 12-LO, the “PMNL (20 µM AA) 12-HETE IC50” value is “n.i”.
For `CCCCCCCCCCCCC=C(CCCC(=O)O)[N+](=O)[O-]` [18.5.5, 5-nitro-octadec-5-enoic acid] the same measures were 7.5 ± 1.1 µM, 9 ± 1.1 µM and “n.i”.
On to `CCCCCCCCCCCC=C(CCCCC(=O)O)[N+](=O)[O-]` [18.6.6, 6-nitro-octadec-6-enoic acid], for which the figures for the IC50 on 5-LO (setting [1]) and on 5-LO (setting [2]) were 9.1 ± 1.2 µM and 7.7 ± 1.1 µM, respectively. Also, the “PMNL (20 µM AA) 12-HETE IC50” value on 12-LO was “n.i”.
Take `CCCCCCCCCCCC(=CCCCCC(=O)O)[N+](=O)[O-]` [18.6.7, 7-nitro-octadec-6-enoic acid]: the IC50 at 5-LO (setting [1]) was 11.2 ± 1.2 µM; on 5-LO (setting [2]) it was 8.3 ± 1.1 µM. The “PMNL (20 µM AA) 12-HETE IC50” value on 12-LO is given as “n.i”.
For `CCCCCCCCCCC=C(CCCCCC(=O)O)[N+](=O)[O-]` [18.7.7, 7-nitro-octadec-7-enoic acid] the same measures were 4.9 ± 1.1 µM, 4.3 ± 1.1 µM and “n.i”.
For `CCCCCCCCCC=C(CCCCCCC(=O)O)[N+](=O)[O-]` [18.8.8, 8-nitro-octadec-8-enoic acid], the IC50 at 5-LO (setting [1]) turned out to be 6.6 ± 1.1 µM; at 5-LO (setting [2]), 7.9 ± 1.1 µM. Moreover, on 12-LO, the “PMNL (20 µM AA) 12-HETE IC50” value was “n.i”.
For `CCCCCCCCCC(=CCCCCCCC(=O)O)[N+](=O)[O-]` [18.8.9, 9-nitro-octadec-8-enoic acid] the same measures were 7.7 ± 1.2 µM, 5.7 ± 1.2 µM and “n.i”.
In the case of `CCCCCCCCC=C(CCCCCCCC(=O)O)[N+](=O)[O-]` [18.9.9, 9-nitro-octadec-9-enoic acid], the IC50 was 5.9 µM and 6.1 µM on 5-LO (setting [1]); 4.8 ± 1.8 µM at 5-LO (setting [2]). On 12-LO, the “PMNL (20 µM AA) 12-HETE IC50” value is “n.i”.
On to `CCCCCCCCC(=CCCCCCCCC(=O)O)[N+](=O)[O-]` [18.9.10, 10-nitro-octadec-9-enoic acid], for which the IC50 at 5-LO (setting [1]) is 6.9 ± 1.1 µM; on 5-LO (setting [2]), 5 ± 1.1 µM. Also, on 12-LO, the “PMNL (20 µM AA) 12-HETE IC50” value was “n.i”.
The corresponding values for `CCCCCCCC=C(CCCCCCCCC(=O)O)[N+](=O)[O-]` [18.10.10, 10-nitro-octadec-10-enoic acid] are 6 ± 1.2 µM, 7 ± 1.1 µM and “n.i”.
As for `CCCCCCC=C(CCCCCCCCCC(=O)O)[N+](=O)[O-]` [18.11.11, 11-nitro-octadec-11-enoic acid], the results for the IC50 at 5-LO (setting [1]) and on 5-LO (setting [2]) were 5.7 ± 1.1 µM and 5.9 ± 1.1 µM, respectively. The “PMNL (20 µM AA) 12-HETE IC50” value at 12-LO is “n.i”.
For `CCCCCCCCCCC=C(CCCCCCCC(=O)O)[N+](=O)[O-]` [20.9.9, 9-nitro-eicos-9-enoic acid] the same measures were 4.7 ± 1.1 µM, 4.2 ± 1.1 µM and “n.i”.
For the compound `CCCCCCCC/C=C\CCCCCCCC(=O)O` [OA, oleic acid, reference compound], on 5-LO, the “PMNL (20 µM AA) 5-HETE IC50” value is reported as “n.i” and the “PMNL (20 µM AA) LTB4 IC50” value is given as “n.i”. In addition, the “PMNL (20 µM AA) 12-HETE IC50” value on 12-LO is “not affected and n.i”.

Usually IC50 stands for the midpoint of a concentration-inhibition curve.

Values taken from paper PMC8637440, “Structural Modifications Yield Novel Insights Into the Intriguing Pharmacodynamic Potential of Anti-inflammatory Nitro-Fatty Acids” (Frontiers in Pharmacology, 2021).
